Measured values reported in article PMC6954543, “A window-of-opportunity trial of the CXCR1/2 inhibitor reparixin in operable HER-2-negative breast cancer” (Breast Cancer Research : BCR, 2020).

Experiments:
CD18+ PMNs = assay: Adhesion molecule expression on peripheral blood PMNs by flow cytometry; format: in vivo, human; settings: after 21 days of treatment vs baseline; p < 0.05
Procedure: The expression of adhesion molecules (CD11b, CD18, and CD66b) on PMNs was investigated. Typically, 100 µL of whole blood were incubated with 10nM CXCL8 for 10 minutes at room temperature to upregulate the expression of adhesion molecules. Untreated whole blood samples were included as control. We measured the percentage of PMNs that expressed CD11b, CD18, and CD66b as well as the Mean Fluorescence of Intensity (MFI) of each adhesion molecule as a measure of expression density by flow cytometry.

P62 = assay: p62 expression on tumor cells by IHC; format: in vivo, human; settings: IHC score 0 to 4
Procedure: (§1) All IHC analyses and scoring for extent (0 to 4) and intensity (0 to 3) were performed at the Houston Memorial Hermann Pathology laboratory as previously described. After antigen retrieval (Tris-Cl, pH 9.0), paraffin-embedded sections of sample tumors were incubated for 1 h at room temperature with the following antibodies: anti-human CXCR1 (rabbit polyclonal to CXCR1 - C-terminal, ab137351; Abcam, Cambridge, MA), anti-human CD31 (clone JC70A, #IS610; Dako, Glostrup, Denmark), anti-human p62 (clone SQSTM1/p62, # 5114; Cell Signaling), anti-human AKT (rabbit polyclonal to pan-AKT, # ab8805; Abcam), anti-human FAK (clone pY861, #44-626G; Invitrogen, Qiagen, Carlsbad, CA), anti-human phospho-AKT (clone Ser473 (D9E), #4060; Cell Signaling), anti-human phospho-FAK (clone Y397, #ab4803; Abcam), and anti-human LC3B (clone D11, #3868; Cell Signaling). For the evaluation of extent, the following semi-quantitative score method (0 to 4) was used: 0, no positive cells; 1, 1–25%; 2, 26–50%; 3, 51–75%; and 4, 76–100%.

CXCR1+ cells = assay: CXCR1+ cell evaluation in core biopsy samples by flow cytometry; format: in vivo, human
Description: Patients underwent core biopsies at baseline (day − 14 to 0) and at the completion of therapy (day 21). Three to five ≥ 18-gage needle biopsies were taken to measure the changes in CSC populations and pathway markers. If not performed at the completion of treatment, a core biopsy was taken on the day of surgery by the same technique. A sample of the surgically resected tumor tissue was also taken. Additional analyses were directed to determine CXCR1 (PerCP/Cy5.5 mouse anti-human CD181 (CXCR1; BioLegend, San Diego, CA) and cell lineages using the following antibodies: APC mouse anti-human CD44 (BD Bioscience, San Jose, CA; catalog #559942), PE-Cy7 mouse anti-human CD24 (#561646), PE mouse anti-human CD2 (#555327), PE mouse anti-human CD31 (#555446), PE mouse anti-human CD3 (#555333), PE mouse anti-human CD18 (#555924), PE mouse anti-human CD16 (#555407), PE mouse anti-human CD19 (#555413), and PE mouse anti-human CD45 (#555483).

CXCR1/2+ cells = tested on: CXCR1/2+ cells; parameters: method as in PMID 22996693; settings: preclinical models; cited from earlier work
[1] = tested on: ALDH+ and CD24−/CD44+ CSC; assay: CSC evaluation in core biopsy samples by flow cytometry; format: in vivo, human
Procedure: Patients underwent core biopsies at baseline (day − 14 to 0) and at the completion of therapy (day 21). Three to five ≥ 18-gage needle biopsies were taken to measure the changes in CSC populations and pathway markers. If not performed at the completion of treatment, a core biopsy was taken on the day of surgery by the same technique. A sample of the surgically resected tumor tissue was also taken.
CSC populations (CD24^−/CD44^+ and ALDH^+) were measured by flow-cytometry of single-cell suspensions obtained from tumor biopsies (Additional file 1: Supplemental Materials) by using anti-human CD44-APC (clone G44-26) and CD24-FITC (clone ML5, RUO) antibodies (BD Biosciences, Franklin Lakes, NJ), and ALDEFLUOR assay (StemCell Technologies, Inc., Vancouver, BC, Canada), respectively, as previously published.
In the absence of reference data from the literature, signal of activity was defined as a ≥ 20% reduction in CSC (defined by either the ALDH^+− or CD24^−/CD44^+ phenotype) from baseline values as measured by flow cytometry, accompanied by a consistent reduction of the same cell population by IHC. The 20% cutoff was chosen considering only 1 21-day course of reparixin could be administered before surgery. Given the exploratory nature of the study to be conducted in a curable patient population, a sample of 40 patients divided into 2 subgroups of 20 patient each (i.e., ER+ and/or PgR+ and TNBC) was deemed adequate based upon simulations using the Wilson score method to obtain a lower limit for the probability of success. For each subgroup with this sample size, the study will have 80% power to detect a signal of activity (as defined above) observed in ≥ 70% patients as statistically significant at the 0.05 significance level.
To obtain single cell suspension, samples were weighed and observed for appearance, then placed in digestion media and kept at room temperature. The specimens were then rocked for 1 hour at 185 rpm (1.5 hours for surgical specimens), then filtered through 70 µm filter. HBSS+ was added to rinse any residual cells from filter, and the specimens were centrifuged 350xg for 5 minutes at 4 °C. For RBC lysis, cells were resuspended in sterile cell culture grade water, and after 20 seconds, 10XPBS was added. The specimens were then centrifuged at 350xg for 5 minutes at 4 °C. Supernatant was removed. The rest of the specimen was then filtered with 40 µm sterile cell strainer. Cell concentration was measured using Invitrogen Countess.

CXCR1 = CXCR1 expression on tumor cells by IHC; format: in vivo, human; settings: largest proportion at levels 4 and 3 at baseline; level 3 and 2 or lower at day 21
Procedure: as §1

[2] = tested on: metastatic HER-2-negative BC; parameters: method as in PMID 28539464; settings: in combination with weekly paclitaxel, cited from earlier work

Question: Which “percentage of CD18+ PMNs following in vitro stimulation with CXCL8” value (CD18+ PMNs) does the source give for `CC(C)Cc1ccc([C@@H](C)C(=O)NS(C)(=O)=O)cc1` [reparixin] here?
Answer: The value was “decreased”.

Question: What about the “P62 extent (percentage of positive cells), change baseline to day 21” value (P62) of the same compound?
Answer: The value was “decreased from level 4 to level 3 or lower in the majority of patients”.

Question: What about the “patients with CXCR1+ tumor cells decreased at day 21” value (CXCR1+ cells) of the same compound?
Answer: Its value is 7/13.

Question: What about the “patients with all viable CXCR1+ cells reduced at day 21 vs baseline” value (CXCR1+ cells) of the same compound?
Answer: The value was 6/13.

Question: What about the “patients with parallel decrease in both CXCR1+ cell populations” value (CXCR1+ cells) of the same compound?
Answer: The value was 4/13.

Question: What about the “recruitment of CXCR1/2+ cells from the bloodstream to visceral sites” value (CXCR1/2+ cells) of the same compound?
Answer: Its value is “reduce”.

Question: And the “patients with decrease in ALDH+ cells not accompanied by reduction of CD24−/CD44+ cells” value [1]?
Answer: The value was 2 patients.

Question: What about the “patients with decrease in CD24−/CD44+ CSC not paralleled by decrease in ALDH+ CSC” value [1] of the same compound?
Answer: The value was 6 patients.

Question: And the “patients without ALDH+ CSC at baseline in whom ALDH+ CSCs were detected at day 21” value ([1]; core biopsy)?
Answer: Its value is 5/9.

Question: What about the “patients without CD24−/CD44+ CSC at baseline in whom CD24−/CD44+ CSCs were detected at day 21” value ([1]; core biopsy) of the same compound?
Answer: The value was 6/6.

Question: What about the “CXCR1 positivity, extent and intensity, change at day 21” value (CXCR1) of the same compound?
Answer: The value was “decrease”.

Question: And the “long-lasting CR” value ([2]; 27 evaluable patients)?
Answer: The value was 2.

Question: And the response rate ([2]; 27 evaluable patients)?
Answer: The response rate was 30%.

Question: And the “gastrointestinal disorders, share of all TEAEs” value ([2]; all grade ≤ 2)?
Answer: Its value is 39%.

Question: What about the “Grade 3 treatment-related TEAE, share of all reports” value [2] of the same compound?
Answer: Its value is 2.7%.
